Reference: US8993562B2, “Imidazo[1,2-b]pyridazines, processes, uses, intermediates and compositions” (Ferrer Internacional, S.A., priority 2006, dated 2015)
pIC50: −log10 of the molar value.

Legend:
male CD1 mice [1] = test: In vivo predictive sedation-hypnosis test (traveled distance); conditions: Mus musculus, ip, 0.5 h, traveled distance over 30 min versus control, read-out: % inhib motor activity; for inhibition in vivo at 0.98 µmol/kg: 0.98 μmol/kg intraperitoneal; for inhibition in vivo at 98 µmol/kg: 98.0 μmol/kg intraperitoneal
Procedure: b) In Vivo Determination of Predictive Sedative-hypnotic Action
The in vivo effects of these compounds were assessed by a predictive sedation-hypnosis test in mice (D. J. Sanger et al., Eur. J. Pharmacol., 313, 35-42, 1996; and G. Griebel et al., Psychopharmacology, 146, 205-213, 1999).
Groups of 5-8 male CD1 mice, weighing 22-26 g at the time of test, were used. […] Compounds were suspended in 0.25% agar with one drop of Tween in a volume of 10 mL/kg. Control animals were given the vehicle alone. Using a Smart System (Panlab, S. L., Spain) the traveled distance in cm is recorded for each mouse at 5-minutes intervals during a period of 30 minutes after dosing. The inhibition percentage of traveled distance of treated animals versus control animals (the first 5 minutes were discarded) was calculated.

male CD1 mice [2] = test: In vivo predictive anesthetic test (loss of righting reflex)
Procedure: c) In Vivo Determination of Predictive Anesthetic Activity
The in vivo effects of these compounds were assessed by a predictive anesthetic test in mice as the loss of righting reflex (Kralic et al., Neuropharmacology, 43(4), 685-689 2002; Belelli et al., Neuropharmacology, 45, 57-71, 2003).
Groups of 5-8 male CD1 mice, weighing 22-26 g at the time of test, were used. The test compounds were administered at 98.0 μmol/kg by mean of intraperitoneal injection. Compounds were suspended in 0.25% agar with one drop of Tween in a volume of 10 mL/kg.

α1-GABAA receptor = test: Ligand-binding assay, radiolabeled flumazenil competition, cerebellum membranes; conditions: rat cerebellum membranes, radiolabeled flumazenil 1 nM
Procedure: (§1) a) Ligand-binding Assays. Determination of the Affinity of Test Compounds for α1- and α2-GABAA Receptor
(§2) Male Sprague-Dawley rats weighing 200-250 g at the time of experiment were used. After decapitation of the animal, the cerebellum (tissue that mostly contains α1-GABAA receptor) and spinal cord (tissue that mostly contains α2-GABAA receptor) were removed. The membranes were prepared according to the method by J. Lameh et al. (Prog. Neuro-Psychopharmacol. Biol. Psychiatry, 24, 979-991, 2000) and H. Noguchi et al. (Eur J Pharm, 434, 21-28, 2002) with slight modifications. Once the tissues weighed, they were suspended in 50 mM Tris.HCl (pH 7.4), 1:40 (v/v), or sucrose 0.32 M in the case of spinal cord, homogenized and then centrifuged at 20000 g for 10 minutes at 7° C. The resulting pellet was resuspended under the same conditions and centrifuged again. The pellet was finally resuspended on a minimum volume and kept at −80° C. overnight. A slight modification was used in the case of spinal cord at the first centrifugation step. Centrifugation speed was at 1000 g and the supernatant was collected instead of discarded as in cerebellum. Then, supernatant was centrifuged at 20000 g and resuspended twice more under the same conditions described above for cerebellum. On the next day, the process was repeated until the final pellet was resuspended at a ratio of 1:10 (v/v) in the case of cerebellum and at a ratio of 1:5 (v/v) in the case of spinal cord.
(§3) Affinity was determined by competitive tests using radiolabeled flumazenil as ligand. The tests were performed according to the methods described by S. Arbilla et al. (Eur. J. Pharmacol., 130, 257-263, 1986); and Y. Wu et al. (Eur. J. Pharmacol., 278, 125-132, 1995) using 96-well microtiter plates. The membranes containing the study receptors, flumazenil (radiolabeling at a final concentration of 1 nM) and ascending concentrations of test compounds (in a total volume of 230 μl in 50 mM [pH 7.4] Tris.HCl buffer) were incubated. Simultaneously, the membranes were only incubated with the radiolabeled flumazenil (total binding, 100%) and in the presence of an elevated concentration of unradiolabeled flumazenil (non-specific binding, % estimation of radiolabeled ligand). The reactions started on adding the radiolabeled ligand followed by incubation for 60 minutes at 4° C. At the end of the incubation period, 200 μl of reaction were transferred to a multiscreen plate (Millipore) and filtered using a vacuum manifold and then washed three times with cold test buffer. The multiscreen plates were equipped with a GF/B filter that retained the membranes containing the receptors and the radiolabeled ligand which had been bound to the receptors. After washing, the plates were left till dry. Once dried, scintillation liquid was added and left under stirring overnight. The next day the plates were counted using a Perkin-Elmer Microbeta scintillation counter.
(§4) For analysis of the results the percentage of specific binding for every concentration of test compound was calculated as follows: specific binding−(X−N/T−N)×100 where, X: amount of bound ligand for every concentration of compound. T: total binding, maximum amount bound to the radiolabeled ligand. N: non-specific binding, amount of radiolabeled ligand bound in a non-specific way irrespective of the receptor used.
(§5) Every concentrations of compound were tested in triplicate and their mean values were used to determine the experimental values of % specific binding versus the concentration of compound. Affinity data are expressed as % inhibition at 10^−5M and 10^−7M concentrations.

α2-GABAA receptor = test: Ligand-binding assay, radiolabeled flumazenil competition, spinal cord membranes; conditions: rat spinal cord membranes, radiolabeled flumazenil 1 nM
Procedure: as §1, §2, §3, §4, §5

GABAA receptor = target: T1, GABAA receptor; test: Comparative assay: IC50 values estimated from Cheng-Prusoff equation; type: binding, rat; conditions: compounds of the invention; estimated from Ki by Cheng-Prusoff equation, radioligand 1 nM
T1 construct: IC50; other: compounds of the invention; estimated from Ki by Cheng-Prusoff equation, radioligand 1 nM
Procedure: All these compounds have in common that at 3-position, the imidazo[1,2-b]pyradizine ring have an acetamide. The rest of compounds disclosed in WO89/01333 are not structurally so related with the compounds of the present invention.
The IC50 values were estimated from Cheng-Prusoff equation (Cheng Y. C. and Prusoff W. H.; Biochem. Pharmacol. 22, 3099-3108, 1973)
[formula] where, Ki is determined for each one of the compounds of the invention as described above (section (a)). [RL*]: radiolabeled ligand concentration (1 nM). Kd: affinity constant (cerebellum 1.34 nM/spinal cord 1.19 nM)

Q: How did the inhibition in vivo at 0.98 µmol/kg (male CD1 mice [1]) turn out when `CCCCN(CCCC)C(=O)Cc1c(-c2ccc(C)cc2)nc2ccc(Cl)nn12` [Example 3, N,N-Dibutyl-2-(6-chloro-2-p-tolyl-imidazo[1,2-b]pyridazin-3-yl)-acetamide] was run?
A: 14.6%

Q: What about the inhibition in vivo at 98 µmol/kg (male CD1 mice [1]) of the same compound?
A: 90.9%

Q: What about the “% of animals with loss of righting reflex” value (male CD1 mice [2]; 98.0 μmol/kg intraperitoneal) of the same compound?
A: 100%

Q: For `CCCN(CCC)C(=O)Cc1c(-c2ccc(C)cc2)nc2ccc(Cl)nn12` [Example 2, 2-(6-Chloro-2-p-tolyl-imidazo[1,2-b]pyridazin-3-yl)-N,N-dipropyl-acetamide], which inhibition in vivo at 0.98 µmol/kg (male CD1 mice [1]) is on record?
A: 38.4%

Q: What about the inhibition in vivo at 98 µmol/kg (male CD1 mice [1]) of the same compound?
A: 96.7%

Q: And the “% of animals with loss of righting reflex” value (male CD1 mice [2]; 98.0 μmol/kg intraperitoneal)?
A: 90%

Q: What does the source list for `Cc1ccc(-c2nc3ccc(C)cn3c2CC(=O)N(C)C)cc1` [zolpidem, N,N,6-trimethyl-2-p-tolylimidazo[1,2-a]pyridine-3-acetamide, reference compound]?
A: % inhib 10^−5 M, affinity for the α1-subunit of the GABAA receptor (α1-GABAA receptor): 99.4%; % inhib 10^−7 M, affinity for the α1-subunit of the GABAA receptor (α1-GABAA receptor): 73.6%; inhibition in vivo at 0.98 µmol/kg (male CD1 mice [1]): 18.3%; inhibition in vivo at 98 µmol/kg (male CD1 mice [1]): 91.7%; % inhib 10^−5 M, affinity for the α2-subunit of the GABAA receptor (α2-GABAA receptor): 74.1%; % inhib 10^−7 M, affinity for the α2-subunit of the GABAA receptor (α2-GABAA receptor): 19.9%; % of animals with loss of righting reflex (male CD1 mice [2]; double dose than compounds of the present invention): 80%

Q: With `Cc1ccc(-c2nc3ccc(C)nn3c2CC(=O)Nc2nncs2)cc1` [Example 98, 2-(6-Methyl-2-p-tolyl-imidazo[1,2-b]pyridazin-3-yl)-N-[1,3,4]thiadiazol-2-yl-acetamide] as the compound, how does the pIC50 (GABAA receptor) read?
A: 7.91

Q: With `CCCN(CC1CC1)C(=O)Cc1c(-c2ccc(C)cc2)nc2ccc(C)nn12` [Example 82, N-Cyclopropylmethyl-2-(6-methyl-2-p-tolyl-imidazo[1,2-b]pyridazin-3-yl)-N-propyl-acetamide] as the compound, how does the inhibition in vivo at 98 µmol/kg (male CD1 mice [1]) read?
A: 94.2%

Q: And the “% of animals with loss of righting reflex” value (male CD1 mice [2]; 98.0 μmol/kg intraperitoneal)?
A: 30%

Q: With `Cc1ccc(-c2nc3ccc(C)nn3c2CC(=O)Nc2cc(C)no2)cc1` [Example 97, N-(3-Methyl-isoxazol-5-yl)-2-(6-methyl-2-p-tolyl-imidazo[1,2-b]pyridazin-3-yl)-acetamide] as the compound, how does the pIC50 (GABAA receptor) read?
A: 7.84

Q: Which results are given for `Cc1ccc(-c2nc3ccc(C)nn3c2CC(=O)Nc2ccccn2)cc1` [Example 88, 2-(6-Methyl-2-p-tolyl-imidazo[1,2-b]pyridazin-3-yl)-N-pyridin-2-yl-acetamide]?
A: % inhib 10^−5 M, affinity for the α1-subunit of the GABAA receptor (α1-GABAA receptor): 100.2%; % inhib 10^−7 M, affinity for the α1-subunit of the GABAA receptor (α1-GABAA receptor): 83.9%; inhibition in vivo at 98 µmol/kg (male CD1 mice [1]): 88.5%; pIC50 (GABAA receptor): 7.89

Q: How did the “% inhib 10^−5 M, affinity for the α1-subunit of the GABAA receptor” value (α1-GABAA receptor) turn out when `Cc1ccc(-c2nc3ccc(C)nn3c2CC(=O)Nc2ccccc2)cc1` [Example 86, 2-(6-Methyl-2-p-tolyl-imidazo[1,2-b]pyridazin-3-yl)-N-phenyl-acetamide] was run?
A: 99.5%

Q: And the “% inhib 10^−7 M, affinity for the α1-subunit of the GABAA receptor” value (α1-GABAA receptor)?
A: 75.9%

Q: What about the inhibition in vivo at 98 µmol/kg (male CD1 mice [1]) of the same compound?
A: 92.6%

Q: What about the “% inhib 10^−5 M, affinity for the α2-subunit of the GABAA receptor” value (α2-GABAA receptor) of the same compound?
A: 80.9%

Q: What about the “% inhib 10^−7 M, affinity for the α2-subunit of the GABAA receptor” value (α2-GABAA receptor) of the same compound?
A: 23.0%

Q: With `Cc1ccc(-c2nc3ccc(C)nn3c2CC(=O)Nc2cc(C)on2)cc1` [Example 95, N-(5-Methyl-isoxazol-3-yl)-2-(6-methyl-2-p-tolyl-imidazo[1,2-b]pyridazin-3-yl)-acetamide] as the compound, how does the pIC50 (GABAA receptor) read?
A: 7.77

Q: Which results are given for `Cc1ccc(-c2nc3ccc(C)nn3c2CC(=O)Nc2nccs2)cc1` [Example 83, 2-(6-Methyl-2-p-tolyl-imidazo[1,2-b]pyridazin-3-yl)-N-thiazol-2-yl-acetamide]?
A: % inhib 10^−5 M, affinity for the α1-subunit of the GABAA receptor (α1-GABAA receptor): 99.6%; % inhib 10^−7 M, affinity for the α1-subunit of the GABAA receptor (α1-GABAA receptor): 97.6%; inhibition in vivo at 98 µmol/kg (male CD1 mice [1]): 88.9%; % inhib 10^−5 M, affinity for the α2-subunit of the GABAA receptor (α2-GABAA receptor): 93.1%; % inhib 10^−7 M, affinity for the α2-subunit of the GABAA receptor (α2-GABAA receptor): 57.7%

Q: `CCOc1ccc2nc(-c3ccc(F)cc3)c(CC(=O)N3CCCCC3)n2n1` [Example 67, 2-[6-Ethoxy-2-(4-fluoro-phenyl)-imidazo[1,2-b]pyridazin-3-yl]-1-piperidin-1-yl-ethanone] was tested. Which “% inhib 10^−5 M, affinity for the α1-subunit of the GABAA receptor” value (α1-GABAA receptor) did it give?
A: 98.9%

Q: What about the “% inhib 10^−7 M, affinity for the α1-subunit of the GABAA receptor” value (α1-GABAA receptor) of the same compound?
A: 42.2%

Q: What about the inhibition in vivo at 98 µmol/kg (male CD1 mice [1]) of the same compound?
A: 90.8%

Q: What about the “% inhib 10^−5 M, affinity for the α2-subunit of the GABAA receptor” value (α2-GABAA receptor) of the same compound?
A: 83.7%

Q: And the “% inhib 10^−7 M, affinity for the α2-subunit of the GABAA receptor” value (α2-GABAA receptor)?
A: 8.8%

Q: `CCN(CC)C(=O)Cc1c(-c2ccc(OC)cc2)nc2ccc(OC)nn12` [Example 75, N,N-Diethyl-2-[6-methoxy-2-(4-methoxy-phenyl)-imidazo[1,2-b]pyridazin-3-yl]-acetamide] was tested. Which “% inhib 10^−5 M, affinity for the α1-subunit of the GABAA receptor” value (α1-GABAA receptor) did it give?
A: 99.4%

Q: What about the “% inhib 10^−7 M, affinity for the α1-subunit of the GABAA receptor” value (α1-GABAA receptor) of the same compound?
A: 52.1%

Q: And the inhibition in vivo at 98 µmol/kg (male CD1 mice [1])?
A: 92.6%

Q: What about the “% inhib 10^−5 M, affinity for the α2-subunit of the GABAA receptor” value (α2-GABAA receptor) of the same compound?
A: 68.8%

Q: What about the “% inhib 10^−7 M, affinity for the α2-subunit of the GABAA receptor” value (α2-GABAA receptor) of the same compound?
A: 9.3%

Q: How did the “% inhib 10^−5 M, affinity for the α1-subunit of the GABAA receptor” value (α1-GABAA receptor) turn out when `COc1ccc2nc(-c3ccc(F)cc3)c(CC(=O)N3CCCCC3)n2n1` [Example 65, 2-[2-(4-Fluoro-phenyl)-6-methoxy-imidazo[1,2-b]pyridazin-3-yl]-1-piperidin-1-yl-ethanone] was run?
A: 99.5%

Q: What about the “% inhib 10^−7 M, affinity for the α1-subunit of the GABAA receptor” value (α1-GABAA receptor) of the same compound?
A: 58.5%

Q: And the inhibition in vivo at 98 µmol/kg (male CD1 mice [1])?
A: 95.5%

Q: And the “% inhib 10^−5 M, affinity for the α2-subunit of the GABAA receptor” value (α2-GABAA receptor)?
A: 78.5%

Q: And the “% inhib 10^−7 M, affinity for the α2-subunit of the GABAA receptor” value (α2-GABAA receptor)?
A: 16.3%
